The test system of one data set is HL-60. In words: Synergistic cytotoxicity against human HL60 cells assessed as reduction in cell viability after 72 hrs in presence of 5-AzaC by Resazurin assay. The data set is classed as functional.
The next data set concerns the target T1, dCTP pyrophosphatase 1 (Homo sapiens, UniProt Q9H773).
T1 sequence (Q9H773 whole entry): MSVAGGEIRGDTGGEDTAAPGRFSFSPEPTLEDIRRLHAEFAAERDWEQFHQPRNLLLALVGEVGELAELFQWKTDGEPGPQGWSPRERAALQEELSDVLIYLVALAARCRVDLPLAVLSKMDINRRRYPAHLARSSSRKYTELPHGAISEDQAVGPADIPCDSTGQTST

A short description of data set [1]: Drug uptake in human MCF7 cells up to 20 uM. Format: ADME, cell-based.
Data set [2] can be described thus: Drug uptake in human HL60 cells at 10 uM. The note with it: hl-60, 10 µM. Format: ADME, cell-based.
Another data set relates to hTERT-BJ. In words: Cytotoxicity against human hTERT-BJ cells assessed as reduction in cell viability after 72 hrs by Resazurin assay. Format: cell-based. (In general: The colour change of resazurin is a common sign of viable cells or microbes.)
The target in a further data set is T2, Stearoyl-CoA desaturase (Homo sapiens, UniProt O00767).
T2 sequence (O00767 whole entry): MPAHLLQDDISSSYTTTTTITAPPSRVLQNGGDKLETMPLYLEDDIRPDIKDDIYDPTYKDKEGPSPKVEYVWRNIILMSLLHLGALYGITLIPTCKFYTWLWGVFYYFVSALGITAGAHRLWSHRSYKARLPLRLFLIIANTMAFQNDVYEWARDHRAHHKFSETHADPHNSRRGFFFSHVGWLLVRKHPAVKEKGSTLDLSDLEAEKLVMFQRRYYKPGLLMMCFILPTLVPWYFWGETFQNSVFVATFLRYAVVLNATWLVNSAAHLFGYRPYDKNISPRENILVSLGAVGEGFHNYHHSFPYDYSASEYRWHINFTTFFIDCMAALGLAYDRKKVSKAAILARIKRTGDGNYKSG

pIC50: −log10 of the molar value.

Description for Stearoyl-CoA desaturase: Inhibition of SCD1 in human HepG2 cells assessed as ratio of cellular protein product over substrate after 72 hrs
Description for dCTP pyrophosphatase 1: Inhibition of human full length N-terminal His-tagged dCTPase expressed in Escherichia coli BL21(DE3) using dCTP as substrate by HTS-based malachite green assay

A word on the pIC50: it is the IC50 on a negative log10 scale, so that one unit is a factor of ten. Regarding `Cc1c(Cl)cccc1S(=O)(=O)N1CCN(c2ccc(C(=O)NCc3cccs3)nn2)CC1`, in the data set on HL-60, the CI is listed as less than 1. The compound further gave a negative-log IC50 (pIC50) against dCTP pyrophosphatase 1 of 7.72.
On dCTP pyrophosphatase 1, `O=C(Nc1ccccc1)c1ccc(N2CCN(C(=O)c3ccccc3C(F)(F)F)CC2)nn1` had a pIC50 of less than 5.00.
Same read-out and setting: to `O=C(NCc1ccccc1)c1ccc(N2CCN(S(=O)(=O)c3ccccc3C(F)(F)F)CC2)nn1` belongs 6.60; to `O=C(NCc1ccccc1)c1ccc(N2CCN(S(=O)(=O)c3ccccc3N3CCC(O)CC3)CC2)nn1`, 6.59.
As to `O=C(NCc1ccc(F)cc1)c1ccc(N2CCN(S(=O)(=O)c3cccnc3Cl)CC2)nn1`, on dCTP pyrophosphatase 1, the negative-log IC50 (pIC50) is 7.60.
Take `Cc1ccccc1S(=O)(=O)N1CCN(c2ccc(C(=O)NCc3ccc(F)cc3)nn2)CC1`: the Drug uptake in data set [1] and in data set [2] was more than 50% in each case. The same compound had a negative-log IC50 (pIC50) against dCTP pyrophosphatase 1 of 7.19.
`Cc1ccccc1S(=O)(=O)N1CCN(c2ccc(CNCc3ccccc3)nn2)CC1`: the pIC50 against dCTP pyrophosphatase 1 is less than 5.00.
Turning to `Cc1ccccc1[S+]([O-])C1CCN(c2ccc(C(=O)NCc3ccccc3)nn2)CC1` (stereo not given), on dCTP pyrophosphatase 1, the pIC50 is 5.96.
As to `Cc1ncccc1S(=O)(=O)N1CCN(c2ccc(C(=O)NCc3ccc(F)cc3)nn2)CC1`, in the data set on hTERT-BJ, the Activity entry is reported as “Non-Toxic”. For the same compound, the Drug uptake in data set [1] and in data set [2] was more than 50% in each case. On dCTP pyrophosphatase 1, this compound gave a pIC50 of 7.44.
For the compound `Cc1ccccc1S(=O)(=O)N1CCN(c2ccc(C(CO)(CO)CCc3ccc(F)cc3)nn2)CC1`, the negative-log IC50 (pIC50) against dCTP pyrophosphatase 1 is less than 5.00.
On the same count and under the same terms, for `C=C(CCc1ccc(F)cc1)c1ccc(N2CCN(S(=O)(=O)c3ccccc3C)CC2)nn1` the value was less than 5.00.
On the same count and under the same terms, for `C#CCNC(=O)c1ccc(N2CCN(S(=O)(=O)c3cccc(Cl)c3C)CC2)nn1` the value was 7.47.
The same measure, in the same setting: for `Cc1ccccc1S(=O)(=O)N1CCN(c2ccc(S(=O)(=O)CCc3ccccc3)nn2)CC1` the value was less than 5.00; for `Cc1ccccc1S(=O)(=O)N1CC2CC1CN2c1ccc(C(=O)NCc2ccccc2)nn1` (stereo not given), 5.77.
With `Cc1ccccc1S(=O)(=O)N1CCN(c2ccc(C(=O)NCc3ccccc3)nn2)CC1`, the Activity entry in the data set with hTERT-BJ is recorded as “Non-Toxic”. For the same compound, the CI in the data set on HL-60 is listed as less than 1. Besides, the pIC50 is 6.77 against dCTP pyrophosphatase 1 and 4.70 on Stearoyl-CoA desaturase.
The compound `Cc1ccccc1S(=O)(=O)C1CCN(c2ccc(C(=O)NCc3ccccc3)nn2)CC1` had a pIC50 on dCTP pyrophosphatase 1 of 6.28.
Same read-out and setting: for `O=C(NCc1ccccc1)c1ccc(N2CCN(S(=O)(=O)c3ccccc3F)CC2)nn1` the value was 6.46; for `Cc1ccccc1S(=O)(=O)N1CCN(c2ccc(C3(CCc4ccc(F)cc4)COC3)nn2)CC1`, less than 5.00.
As for `C#CCOC(=O)c1ccc(N2CCN(S(=O)(=O)c3ccccc3N3CCC(O)CC3)CC2)nn1`, in the data set on hTERT-BJ, the Activity entry is reported as “Non-Toxic”. Further, the Drug uptake in data set [1] and in data set [2] was more than 50% each time. The same compound showed a pIC50 against dCTP pyrophosphatase 1 of 7.39.
With `Cc1ccccc1S(=O)(=O)N1CCN(c2ccc(C(=O)OCc3ccccc3)nn2)CC1`, the negative logarithm of the IC50 (pIC50) at dCTP pyrophosphatase 1 was 7.42.
Still for that read-out and setting: to `Cc1ccccc1S(=O)(=O)N1CCN(c2ccc(C(=O)CCc3ccc(F)cc3)nn2)CC1` belongs 6.59; to `O=C(NCCc1ccccc1)c1ccc(N2CCN(C(=O)c3ccccc3C(F)(F)F)CC2)nn1`, 5.55.
With `Cc1ccccc1S(=O)(=O)N1CCN(c2ccc(C(=O)NCc3cccs3)nn2)CC1`, in the data set on HL-60, the CI was less than 1. Besides, at dCTP pyrophosphatase 1, the pIC50 was 7.29.
On to `O=C(NCc1ccccc1)c1ccc(N2CCN(C(=O)c3ccccc3C(F)(F)F)CC2)nn1`, for which the negative logarithm of the IC50 (pIC50) against dCTP pyrophosphatase 1 was 6.62.
On the same count and under the same terms, for `Cc1ccccc1S(=O)(=O)N1CCCN(c2ccc(C(=O)NCc3ccccc3)nn2)CC1` the value was 5.49.
Still for that read-out and setting: to `CN(C)c1ccccc1S(=O)(=O)N1CCN(c2ccc(C(=O)NCc3ccccc3)nn2)CC1` belongs 6.30.
Regarding `Cc1nnc(-c2ccc(N3CCC(Oc4cc(F)ccc4Cl)CC3)nn2)o1`, on Stearoyl-CoA desaturase, the pIC50 is 6.17.

Values taken from ChEMBL document CHEMBL4014328, “Piperazin-1-ylpyridazine Derivatives Are a Novel Class of Human dCTP Pyrophosphatase 1 Inhibitors” (J Med Chem, 2017).
